Test results published in PubChem BioAssay (NCI).
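Step 1: Grow cells in 96-well plates. Step 2: Expose to compound for 48 hours at 5 concentrations. Step 3: Interpolate endpoints linearly; if unreached, use highest concentration. Definition used: TGI = concentration required for complete inhibition of growth.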

How the values were obtained:
Experiment in all cases: inhibition of tumour cell growth, NCI panel, 48 h
[1] = test system: OVCAR-4 ovarian
[2] = test system: SF-295 CNS
[3] = test system: U251 CNS
[4] = test system: SN12C renal
[5] = test system: ACHN renal
[6] = test system: NCI-H522 lung
[7] = test system: 786-0 renal
[8] = test system: CAKI-1 renal
[9] = test system: SNB-75 CNS
[10] = test system: SK-OV-3 ovarian
[11] = test system: HOP-62 NSCLC
[12] = test system: SF-539 CNS
[13] = test system: OVCAR-3 ovarian
[14] = test system: CCRF-CEM leukemia
[15] = test system: M14 melanoma
[16] = test system: RXF 393 renal
[17] = test system: MCF7 breast
[18] = test system: MDA-MB-231 breast
[19] = test system: DU-145 prostate

Row | Compound | TGI [1] [µM] | TGI [2] [µM] | TGI [3] [µM] | TGI [4] [µM] | TGI [5] [µM] | TGI [6] [µM] | TGI [7] [µM] | TGI [8] [µM] | TGI [9] [µM] | TGI [10] [µM] | TGI [11] [µM] | TGI [12] [µM] | TGI [13] [µM] | TGI [14] [µM] | TGI [15] [µM] | TGI [16] [µM] | TGI [17] [µM] | TGI [18] [µM] | TGI [19] [µM]
1 | CCOc1cc2ccc3c4cc(OC)c(OC)cc4cnc3c2cc1OCC | > 100 | > 100 | > 100 | > 100 | > 100 | > 100 | > 100 | > 100 | > 100 | > 100 | > 100 | > 100 | > 100 | > 100 | > 100 |  |  |  | 
2 | COc1ccc(/C=N/N=C(\N)NO)c(Cl)c1O | > 100 | 22.4 | > 100 | > 100 | > 100 | 42.1 | > 100 | 54.8 |  | > 100 | 72.1 | 46.5 | > 100 | > 100 |  | > 100 |  |  | 
3 | C1=Nc2ccc(cc2)N=Cc2ccccc2OCc2cccc(n2)COc2ccccc21 | > 100 | > 100 | > 100 | > 100 | > 100 | > 100 | > 100 | > 100 |  | > 100 | > 100 | 81.6 | > 100 | > 100 | > 100 | 36.2 | > 100 | > 100 | > 100
4 | O=c1cc(-c2ccccc2)oc2cc(OCC(O)COc3ccc4c(=O)cc(-c5ccccc5)oc4c3)ccc12 |  | > 100 | 63.1 |  |  | > 100 | 52 | > 100 |  | 76.7 | 24.6 | 57 | > 100 | > 100 | > 100 |  |  |  | 
5 | CC(C)C1C(=O)NC(CO)Cc2c[nH]c3c(C(c4c[nH]c5ccccc45)C(O)CO)ccc(c23)N1C (stereo unspecified) | > 100 | > 100 |  | > 100 | > 100 | > 100 | > 100 |  | > 100 | > 100 |  | > 100 | > 100 | > 100 | > 100 | > 100 |  |  | 
6 | CCOC(=O)C[C@@H](C)[C@]1(C(=O)OC)CCCC1=O | > 100 | > 100 | > 100 | > 100 | > 100 | > 100 | > 100 | > 100 | > 100 | > 100 | > 100 | > 100 | > 100 | > 100 | > 100 | > 100 |  |  | 
7 | O=C(CSc1nnc(Cc2ccccc2)o1)Nc1cccc(Cl)c1 | > 100 | > 100 | > 100 | > 100 | > 100 | > 100 | > 100 | > 100 | 89.5 | > 100 | > 100 | > 100 | > 100 | > 100 | > 100 | > 100 |  |  | 
8 | CC(=O)NC(CCCCN(Cc1ccccc1)C(=O)NCCCl)C(=O)NCc1ccccc1 (stereo unspecified) | > 100 | > 100 | > 100 | > 100 | > 100 | > 100 | > 100 | > 100 | > 100 |  | > 100 | > 100 | > 100 | > 100 | > 100 |  |  |  | 
9 | O=C(/C=C/c1ccc(O)c(O)c1)OC1C[C@@](O)(C(=O)O)C[C@@H](O)[C@H]1OC(=O)/C=C/c1ccc(O)c(O)c1 (stereo partly specified) | > 100 | > 100 | > 100 |  | > 100 | > 100 | > 100 |  |  | > 100 | > 100 | > 100 | > 100 | > 100 | > 100 | > 100 |  |  | 
10 | Cc1cc2nc3c(C#N)c(-c4ccccc4)/c(=C\Nc4ccc(Cl)cc4)c(=O)n3c2cc1C | > 100 | > 100 | > 100 | > 100 | > 100 | > 100 | > 100 | > 100 | > 100 | > 100 | > 100 | > 100 | > 100 | > 100 | > 100 | > 100 | > 100 | > 100 | 
11 | N#CC(/C(=N\NC(=O)c1ccncc1)C(=O)Nc1ccc([N+](=O)[O-])cc1[N+](=O)[O-])c1nc(-c2ccc(Br)cc2)cs1 (stereo unspecified) | > 100 | > 100 | > 100 |  | > 100 |  | > 100 | > 100 | > 100 | > 100 | > 100 | > 100 | > 100 | > 100 | > 100 |  |  |  | 
12 | COc1c(C)c2c(c3c1c(=O)c1ccccc1n3C)C=CC(C)(C)O2 |  | 45.8 | 53.8 | > 100 | 56.3 | 67.3 | 69.8 | 82.9 | 62.8 | 43.1 | 85.8 | 44.9 | 41 | 83.9 | 37.9 | > 100 |  |  | 
